From US6531468B2, “Diazabicyclooctane derivatives and therapeutic uses thereof” (Pfizer Inc, priority 2000, dated 2003) come the findings set out here.

The structures appear in SMILES notation. Where a name gives a salt, the structure may show the parent alone.

`Fc1ccc(N2CC3CCC2CN3)cc1` (stereo not shown) (as salt: salt) yielded a melting point of 154 to 156 °C.

Broadly, the melting point is the temperature, or range, at which the solid turns liquid.
